Assays:
Experiment in all cases: Test C pre/postemergence
Type in all cases: in vivo
[1] = test system: Surinam grass (Brachiaria decumbens); conditions: Preemergence, scale 0 to 100, 0 no effect, 100 complete control
How it was run: (§1)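 Pre: seeds planted, sprayed same day. Post: 1- to 4-leaf plants (2–18 cm). Formulation: non-phytotoxic solvent + surfactant. Greenhouse 12–14 d; visual % control vs untreated, 0–100.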

[2] = test system: bermudagrass (Cynodon dactylon); conditions: Preemergence
How it was run: as §1

[3] = test system: common (oilseed) sunflower (Helianthus annuus); conditions: Preemergence, scale 0 to 100, 0 no effect, 100 complete control
How it was run: as §1

[4] = test system: crabgrass (Digitaria sanguinalis); conditions: Preemergence
How it was run: as §1

[5] = test system: giant foxtail (Setaria faberii); conditions: Preemergence
How it was run: as §1

[6] = test system: goosegrass (Eleusine indica); conditions: Preemergence
How it was run: as §1

[7] = test system: johnsongrass (Sorghum halepense); conditions: Preemergence
How it was run: as §1

kochia (Kochia scoparia) = conditions: Preemergence
How it was run: as §1

[8] = test system: morningglory (Ipomoea coccinea); conditions: Preemergence
How it was run: as §1

[9] = test system: pigweed (Amaranthus retroflexus); conditions: Preemergence, scale 0 to 100, 0 no effect, 100 complete control
How it was run: as §1

soybean (Glycine max) = conditions: Preemergence, scale 0 to 100, 0 no effect, 100 complete control
How it was run: as §1

[10] = test system: woolly cupgrass (Eriochloa villosa); conditions: Preemergence
How it was run: as §1

[11] = 16 g ai/ha, scale 0 to 100, 0 no effect, 100 complete control
[12] = 31 g ai/ha, scale 0 to 100, 0 no effect, 100 complete control
[13] = 62 g ai/ha, scale 0 to 100, 0 no effect, 100 complete control

In the case of `CCCOC(=O)c1nc(C2CC2)nc(N)c1Cl` [Compound 75], the “Plant response rating, Surinam Grass” value ([1]; 16 g ai/ha) is reported as 0, the “Plant response rating, Surinam Grass” value ([1]; 31 g ai/ha) is reported as 0 and the “Plant response rating, Surinam Grass” value ([1]; 62 g ai/ha) is reported as 55. The “Plant response rating, Bermudagrass” value [2, 11] was 0, the “Plant response rating, Bermudagrass” value [2, 12] was 0 and the “Plant response rating, Bermudagrass” value [2, 13] was 0. For the same compound, the “Plant response rating, Bermudagrass” value ([2]; 125 g ai/ha, scale 0 to 100) was 20, the “Plant response rating, Sunflower” value ([3]; 16 g ai/ha) was 50 and the “Plant response rating, Sunflower” value ([3]; 31 g ai/ha) was 70. The “Plant response rating, Sunflower” value ([3]; 62 g ai/ha) was 100, the “Plant response rating, Crabgrass” value [4, 11] was 0 and the “Plant response rating, Crabgrass” value [4, 12] was 10. The “Plant response rating, Crabgrass” value [4, 13] was 20, the “Plant response rating, Crabgrass” value ([4]; 125 g ai/ha, scale 0 to 100) was 60 and the “Plant response rating, Foxtail, Giant” value [5, 11] was 0. For the same compound, the “Plant response rating, Foxtail, Giant” value [5, 12] was 0, the “Plant response rating, Foxtail, Giant” value [5, 13] was 0 and the “Plant response rating, Foxtail, Giant” value ([5]; 125 g ai/ha, scale 0 to 100) was 10. For the same compound, the “Plant response rating, Goosegrass” value [6, 11] was 0, the “Plant response rating, Goosegrass” value [6, 12] was 0 and the “Plant response rating, Goosegrass” value [6, 13] was 0. The “Plant response rating, Goosegrass” value ([6]; 125 g ai/ha, scale 0 to 100) was 30, the “Plant response rating, Johnsongrass” value [7, 11] was 0 and the “Plant response rating, Johnsongrass” value [7, 12] was 0. For the same compound, the “Plant response rating, Johnsongrass” value [7, 13] was 50, the “Plant response rating, Johnsongrass” value ([7]; 125 g ai/ha, scale 0 to 100) was 55 and the “Plant response rating, Kochia” value (kochia (Kochia scoparia); [11]) was 70. For the same compound, the “Plant response rating, Kochia” value (kochia (Kochia scoparia); [12]) was 80, the “Plant response rating, Kochia” value (kochia (Kochia scoparia); [13]) was 100 and the “Plant response rating, Kochia” value (kochia (Kochia scoparia); 125 g ai/ha, scale 0 to 100) was 100. For the same compound, the “Plant response rating, Morningglory” value [8, 11] was 50, the “Plant response rating, Morningglory” value [8, 12] was 90 and the “Plant response rating, Morningglory” value [8, 13] was 95. For the same compound, the “Plant response rating, Morningglory” value ([8]; 125 g ai/ha, scale 0 to 100) was 100, the “Plant response rating, Pigweed” value ([9]; 16 g ai/ha) was 70 and the “Plant response rating, Pigweed” value ([9]; 31 g ai/ha) was 75. The “Plant response rating, Pigweed” value ([9]; 62 g ai/ha) was 80, the “Plant response rating, Soybean” value (soybean (Glycine max); 16 g ai/ha) was 55 and the “Plant response rating, Soybean” value (soybean (Glycine max); 31 g ai/ha) was 60. The “Plant response rating, Soybean” value (soybean (Glycine max); 62 g ai/ha) was 100, the “Plant response rating, Cupgrass, Woolly” value [10, 11] was 0 and the “Plant response rating, Cupgrass, Woolly” value [10, 12] was 0. The “Plant response rating, Cupgrass, Woolly” value [10, 13] was 60 and the “Plant response rating, Cupgrass, Woolly” value ([10]; 125 g ai/ha, scale 0 to 100) was 60.
